Literature values, collected in US11066478B2, “Intravesical therapy for bladder cancer” (PHOTOCURE ASA, priority 2015, dated 2021).

What was measured:
NMIBC = details: patients with NMIBC
bladder cancer = details: patients who underwent cystectomy for bladder cancer, HAL-guided TUR prior to cystectomy

CCCCCCOC(=O)CCC(=O)CN [HAL, n-hexyl 5-amino-4-oxo-pentanoate]
rate of residual tumor after TUR (NMIBC; HAL-guided TUR): reduced the rate of residual tumor
recurrence free survival (RFS) rates (NMIBC; HAL-guided TUR compared to white light TUR alone): superior recurrence free survival (RFS) rates
detection of papillary tumors and flat carcinoma-in-situ (CIS) lesions (NMIBC; HAL-guided cystoscopy and TUR versus white light alone): increased detection
3-year overall survival (OS) (bladder cancer; comparison 56.6%): 65.0%
3-year recurrence-free survival (RFS) (bladder cancer; white light TUR alone 58.2%): 69.8%
